This note sets out measurements from US4562006A, “Cycloheptadiene derivatives” (Warner-Lambert Company, priority 1984, dated 1985).

In one assay the target is human leukocyte lipoxygenase. The assay can be described thus: human leukocyte lipoxygenase assay (LDA). In kind it is biochemical. To be noted: LDA column. The protocol:
An acetone-pentane powder of leukocyte and platelets was prepared from buffy coat obtained from the Michigan Red Cross and Michigan Department of Health in Lansing, Michigan, and was suspended in 5-7 volumes of cold 0.1M tris buffer, pH 7.4 containing 0.154 M NaCl. The suspension was centrifuged at 13,300 g for ten minutes at 4° C. The resultant pellet was retained, resuspended in five volumes of cold acetone, recentrifuged at 13,300 g and resuspended in five volumes of cold pentane. The pentane suspension was centrifuged for ten minutes at 13,300 g to give a pellet which was dried in the cold under vacuum with periodic pulverization. The dry powder is stable for several weeks when stored at -80° C.
This was prepared in the following manner. About 15 mg of the acetone-pentane powder is suspended in 4 ml of cold tris buffer (0.1M, pH 7.4), allowed to stand for five minutes and homogenized thoroughly. The homogenate is sonicated three times for 15 seconds each time, diluted to 7 ml with cold tris buffer (0.1M, pH 7.4) and centrifuged at 4° for 60 minutes at 13,300 g. The supernatant is retained and diluted to a total of 10 ml with cold tris buffer (0.1M, pH 7.4) to give the stock enzyme solution. […]
The enzyme reaction is followed spectrophotometrically by the appearance of a conjugated diene product at 234 nm. The reaction is monitored at 24° using a Gilford Model 2500 spectrophotometer. […]
As a reminder, the IC50 is the concentration needed to halve the response being measured. A low value points to inhibition by little substance. In turn, `CCCCC/C=C\C1C=CCC=CC1CCCCCC(=O)O` (stereo not shown) [Example 12, 2,5-Cycloheptadiene-1-hexanoic acid, 7-(1-heptenyl)-(Z)-] yielded an IC50 of 0.74 µM.

The target of the next assay is leukotriene receptor. The assay can be described thus: leukotriene receptor binding assay (RBL-1).
Conditions: not given
An excerpt: The details of the human leukocyte lipoxygenase assay are described below. The soybean lipoxygenase radiochemical is described in Prostaglandins, Leukotrienes, and Medicine, 11, 373-80 (1983). The leukotriene receptor binding assay is described by R. F. Bruns, W. J. Thomsen, and T. A. Pugsley in Life Sciences, 33, 645 (1983).
The following tables illustrate the activity of certain representative compounds of the present invention. The RBL-1 column represent data from the leukotriene receptor binding assay and the LDA(U) column reports on the human leukoxyte lipoxygenase assay.
Take `CCCCC/C=C\C1C=CCC=CC1CCCC(=O)O` (stereo not shown) [Example 14, 2,5-cycloheptadiene-1-butanoic acid, 7-(1-heptenyl)-, (Z)-]: the IC50 was determined as 53.4 µM.
The same measure, in the same setting: then `CCCCC/C=C\C1C=CCC=CC1CCCCCC(=O)O` (stereo not shown) [Example 12, 2,5-Cycloheptadiene-1-hexanoic acid, 7-(1-heptenyl)-(Z)-], with 26.4 µM; and `CCCCCCCC1C=CCC=CC1/C=C\CCCC(=O)O` (stereo not shown) [Example 6, 5-Hexenoic acid, 6-(7-heptyl-2,5-cycloheptadien-1-yl)-], with 23.9 µM; and `CCCCC/C=C\C=C\C1CC1/C=C\CCCC(=O)O` (stereo not shown) [Example 13, 6-[2-(1,3-nonadienyl)cyclopropyl]-5-hexenoic acid (Z,E,Z)], with 26.4 µM.
Turning to `CCCCC/C=C\C1C=CCCC=C1/C=C\CCCC(=O)O` (stereo not shown) [Example 18, 5-Hexenoic acid, 6-[7-(1-heptenyl)-1,5-cycloheptadien-1-yl]-], the IC50 came out at 17.1 µM.
For the compound `CCCCC/C=C\C=C\C1CC1/C=C\CCCCCC(=O)O` (stereo not shown) [Example 11, 7-Octenoic acid, 8-[2-(1,3-nonadienyl)cyclopropyl]-, (Z,E,Z)], the IC50 was 10.3 µM.
